Results as given in patent publication US20080242663A1, “NOVEL PYRIMIDINE DERIVATIVES 698” (ASTRAZENECA AB, priority 2007, published 2008).

Target: T1, recombinant EphB4 (Homo sapiens, UniProt P54760)
T1 construct: amino acids 563-987; Swiss-Prot Acc; No. P54760; purchased ProQinase GmbH 0178-0000-3
T1 sequence (P54760 563-987): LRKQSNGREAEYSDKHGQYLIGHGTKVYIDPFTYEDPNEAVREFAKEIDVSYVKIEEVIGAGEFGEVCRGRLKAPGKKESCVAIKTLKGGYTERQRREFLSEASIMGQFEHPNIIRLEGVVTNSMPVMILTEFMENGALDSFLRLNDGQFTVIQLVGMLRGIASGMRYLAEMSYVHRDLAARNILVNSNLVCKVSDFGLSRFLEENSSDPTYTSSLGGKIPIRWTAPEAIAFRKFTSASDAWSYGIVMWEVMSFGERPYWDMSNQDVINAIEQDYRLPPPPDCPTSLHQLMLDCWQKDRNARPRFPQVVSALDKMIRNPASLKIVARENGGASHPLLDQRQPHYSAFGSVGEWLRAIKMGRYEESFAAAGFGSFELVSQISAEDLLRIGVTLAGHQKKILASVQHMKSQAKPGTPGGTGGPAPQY
Experiment: In vitro EphB4 enzyme assay (Alphascreen)
Format: biochemical
Method in brief: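 Recombinant EphB4 phosphorylated biotin-poly-GAT with Mg-ATP for 1 hr at room temperature; EDTA stop, then Alphascreen donor/acceptor (anti-phosphotyrosine) beads for 20 hrs in the dark. After minimum subtraction, signal plotted against compound concentration to derive IC50.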

| IC50 [nM] | SMILES |
| --- | --- |
| 937 | CN(c1ccnc(Nc2cc(C#N)cc(N3CCOCC3)c2)n1)c1ccc(F)c(Cl)c1F [Example 2.5, 3-[[4-[(3-chloro-2,4-difluoro-phenyl)-methyl-amino]pyrimidin-2-yl]amino]-5-morpholin-4-yl-benzonitrile] |
| 527 | C[C@@H](CO)NC(=O)c1cc(Nc2nccc(N(C)c3cccc(Cl)c3)n2)cc(N2CCOCC2)c1 [Example 19.21, 3-[[4-[(3-chlorophenyl)-methyl-amino]pyrimidin-2-yl]amino]-N-[(2S)-1-hydroxypropan-2-yl]-5-morpholin-4-yl-benzamide] |
| 316 | CN(c1ccc(F)c(Cl)c1)c1ccnc(Nc2cc(N3CCOCC3)cc(N3CCOCC3)c2)n1 [Example 15.22, N′-(4-fluoro-3-chloro-phenyl)-N-(3,5-dimorpholin-4-ylphenyl)-N′-methyl-pyrimidine-2,4-diamine] |
| 119 | CN(c1cccc(Cl)c1)c1ccnc(Nc2cc(C(=O)N3CC[C@@H](O)C3)cc(N3CCOCC3)c2)n1 [Example 19.22, [3-[[4-[(3-chlorophenyl)-methyl-amino]pyrimidin-2-yl]amino]-5-morpholin-4-yl-phenyl]-[(3R)-3-hydroxypyrrolidin-1-yl]methanone] |
| 171 | Cc1ccc(CO)cc1N(C)c1ccnc(Nc2cc(OC(C)C)cc(N3CCOCC3)c2)n1 [Example 17.2, [4-methyl-3-[methyl-[2-[(3-morpholin-4-yl-5-propan-2-yloxy-phenyl)amino]pyrimidin-4-yl]amino]phenyl]methanol] |
| 339 | C[C@@H](CO)N(C)C(=O)c1cc(Nc2nccc(N(C)c3cccc(Cl)c3)n2)cc(N2CCOCC2)c1 [Example 19.6] |
| 207 | CN1CCN(C(=O)c2cc(Nc3nccc(N(C)c4cccc(Cl)c4)n3)cc(N3CCOCC3)c2)CC1 [Example 19.11, [3-[[4-[(3-chlorophenyl)-methyl-amino]pyrimidin-2-yl]amino]-5-morpholin-4-yl-phenyl]-(4-methylpiperazin-1-yl)methanone] |
| 1310 | C[C@H](CO)NC(=O)c1cc(Nc2nccc(N(C)c3cccc(Cl)c3)n2)cc(N2CCOCC2)c1 [Example 19.23, 3-[[4-[(3-chlorophenyl)-methyl-amino]pyrimidin-2-yl]amino]-N-[(2R)-1-hydroxypropan-2-yl]-5-morpholin-4-yl-benzamide] |
| 22.2 | Cc1ccc(CO)cc1N(C)c1ccnc(Nc2cc(N3CCOCC3)cc(N3CCOCC3=O)c2)n1 [Example 7.16, 4-[3-[[4-[[5-(hydroxymethyl)-2-methyl-phenyl]-methyl-amino]pyrimidin-2-yl]amino]-5-morpholin-4-yl-phenyl]morpholin-3-one] |
| 46.1 | CN1CCN(Cc2cc(Nc3nccc(N(C)c4ccc(F)c(Cl)c4F)n3)cc(N3CCOCC3)c2)CC1 [Example 2.18, N′-(3-chloro-2,4-difluoro-phenyl)-N′-methyl-N-[3-[(4-methylpiperazin-1-yl)methyl]-5-morpholin-4-yl-phenyl] pyrimidine-2,4-diamine] |
| 59.6 | CN(c1ccnc(Nc2cc(CN3CCC(O)CC3)cc(N3CCOCC3)c2)n1)c1ccc(F)c(Cl)c1F [Example 2.19, 1-[[3-[[4-[(3-chloro-2,4-difluoro-phenyl)-methyl-amino]pyrimidin-2-yl]amino]-5-morpholin-4-yl-phenyl]methyl]piperidin-4-ol] |
| 1390 | Cc1ccc(Cl)c(N(C)c2ccnc(Nc3cc(N4CCOCC4)cc(N4CCOCC4)c3)n2)c1 [Example 15.18, N′-(2-chloro-5-methyl-phenyl)-N-(3,5-dimorpholin-4-ylphenyl)-N′-methyl-pyrimidine-2,4-diamine] |
| 340 | CN(c1cccc(F)c1)c1ccnc(Nc2cc(N3CCOCC3)cc(N3CCOCC3)c2)n1 [Example 10.5, N-(3,5-dimorpholin-4-ylphenyl)-N′-(3-fluorophenyl)-N′-methyl-pyrimidine-2,4-diamine] |
| 150 | CN(c1ccnc(Nc2cc(N3CCOCC3)cc(N3CCOCC3)c2)n1)c1cc(CO)ccc1Cl [Example 10.19, [4-chloro-3-[[2-[(3,5-dimorpholin-4-ylphenyl)amino]pyrimidin-4-yl]-methyl-amino]phenyl]methanol] |
| 1480 | COCCN(c1ccnc(Nc2cc(N3CCOCC3)cc(N3CCOCC3)c2)n1)c1cc(OC)ccc1C [Example 22.1, N-(3,5-dimorpholin-4-ylphenyl)-N′-(2-methoxyethyl)-N′-(5-methoxy-2-methyl-phenyl)pyrimidine-2,4-diamine] |
| 571 | COCCN(C)C(=O)c1cc(Nc2nccc(N(C)c3cccc(Cl)c3)n2)cc(N2CCOCC2)c1 [Example 19.3, 3-[[4-[(3-chlorophenyl)-methyl-amino]pyrimidin-2-yl]amino]-N-(2-methoxyethyl)-N-methyl-5-morpholin-4-yl-benzamide] |
| 348 | COc1cc(Nc2nccc(N(C)c3ccc(F)c(Cl)c3F)n2)cc(N2CCOCC2)c1 [Example 2.4, N′-(3-chloro-2,4-difluoro-phenyl)-N-(3-methoxy-5-morpholin-4-yl-phenyl)-N′-methyl-pyrimidine-2,4-diamine] |
| 1310 | CN(c1ccnc(Nc2cc(N3CCOCC3)cc(N3CCOCC3)c2)n1)c1cccc(Cl)c1Cl [Example 15.21, N′-(2,3-dichlorophenyl)-N-(3,5-dimorpholin-4-ylphenyl)-N′-methyl-pyrimidine-2,4-diamine] |
| 1190 | CCN(c1ccnc(Nc2cc(N3CCOCC3)cc(N3CCOCC3)c2)n1)c1cc(OC)ccc1C [Example 22.3, N-(3,5-dimorpholin-4-ylphenyl)-N′-ethyl-N′-(5-methoxy-2-methyl-phenyl)pyrimidine-2,4-diamine] |
